Source: patent US6610315B2, “Topical application of stable hydroalcoholic compositions for maintaining or improving skin conditions, and delivering fragrance to skin” (3M Innovative Properties Company, priority 1995, dated 2003)

Key:
[1] = system: E. coli ATCC8739 (lab strain 223); assay: Minimum Inhibitory Concentration (MIC); type: cell-based
Protocol: (§1) An overnight culture of E. coli ATCC8739 (lab strain 223) and/or S. Aureus ATCC 14154 (lab strain 502) grown on trypticase soy agar plates was resuspended in Mueller-Hinton Broth to a cell density of 0.6-1.2×10^6 colony forming units per milliliter. Chlorhexidine samples were prepared by adjusting CHG to 512 μg/ml in Mueller-Hinton Broth and serially diluting in two-fold steps in Mueller-Hinton Broth. The CHG-containing Mueller-Hinton Broth was placed in 96-well sterile microliter plates and each well was inoculated with the bacteria. The plates were then incubated for 24-48 hrs at 37° C. Bacterial growth was determined visually by comparing the plates.

[2] = system: S. Aureus ATCC 14154 (lab strain 502); assay: Minimum Inhibitory Concentration (MIC); type: cell-based
Protocol: as §1

[3] = Example 9, lowest concentration of CHG giving complete kill, 24-48 hrs at 37° C.
[4] = Example 24, CHG at 0.5% by weight where present

E. coli 223 MIC [1, 4]: 4 µg/mL
S aureus 502 MIC [2, 4]: 4 µg/mL
SMILES: N=C(NCCCCCCNC(=N)NC(=N)Nc1ccc(Cl)cc1)NC(=N)Nc1ccc(Cl)cc1.O=C(O)[C@H](O)[C@@H](O)[C@H](O)[C@H](O)CO.O=C(O)[C@H](O)[C@@H](O)[C@H](O)[C@H](O)CO [0.5% CHG std., chlorhexidine gluconate]
MIC (μg/ml) E. coli [1, 3]: 4 µg/mL
MIC (μg/ml) S. aureus [2, 3]: 4 µg/mL
